The results in this text go back to ChEMBL document CHEMBL3217435, “Unfolded and macrocyclic ammonium derivatives of diterpenoids steviol and isosteviol having choline moieties. Synthesis and inhibitory activities toward acetylcholine- and butyrylcholinesterases” (Medchemcomm, 2012).

The target in one experiment is Acetylcholinesterase (Homo sapiens, UniProt P22303). As to the kind of experiment: Inhibition of human erythrocyte AChE using acetylthiocholine iodide as substrate by visible spectrophotometry.
In the next experiment the target is Cholinesterase (Homo sapiens, UniProt P06276). The experiment is described as follows: Inhibition of human serum BChE using butyrylthiocholine iodide as substrate by visible spectrophotometry.

Where only a bound is given, the exact number is not on record here.

Sequence of Cholinesterase (P06276 whole entry): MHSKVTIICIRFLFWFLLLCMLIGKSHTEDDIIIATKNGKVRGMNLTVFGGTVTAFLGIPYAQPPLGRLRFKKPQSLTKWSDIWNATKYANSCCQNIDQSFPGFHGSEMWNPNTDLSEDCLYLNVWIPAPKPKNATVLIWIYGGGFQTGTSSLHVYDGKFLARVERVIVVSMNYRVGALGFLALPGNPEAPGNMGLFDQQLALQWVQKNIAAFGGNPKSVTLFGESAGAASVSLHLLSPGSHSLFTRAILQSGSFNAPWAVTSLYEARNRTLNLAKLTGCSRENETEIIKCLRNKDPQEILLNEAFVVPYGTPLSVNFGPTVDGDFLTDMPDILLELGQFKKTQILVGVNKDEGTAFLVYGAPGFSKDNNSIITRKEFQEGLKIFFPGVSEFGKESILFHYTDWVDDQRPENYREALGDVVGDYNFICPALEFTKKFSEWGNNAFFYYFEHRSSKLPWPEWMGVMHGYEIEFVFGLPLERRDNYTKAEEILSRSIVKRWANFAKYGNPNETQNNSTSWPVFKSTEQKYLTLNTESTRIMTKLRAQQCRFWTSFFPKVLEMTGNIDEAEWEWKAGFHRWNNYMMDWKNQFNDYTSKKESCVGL
Sequence of Acetylcholinesterase (P22303 whole entry): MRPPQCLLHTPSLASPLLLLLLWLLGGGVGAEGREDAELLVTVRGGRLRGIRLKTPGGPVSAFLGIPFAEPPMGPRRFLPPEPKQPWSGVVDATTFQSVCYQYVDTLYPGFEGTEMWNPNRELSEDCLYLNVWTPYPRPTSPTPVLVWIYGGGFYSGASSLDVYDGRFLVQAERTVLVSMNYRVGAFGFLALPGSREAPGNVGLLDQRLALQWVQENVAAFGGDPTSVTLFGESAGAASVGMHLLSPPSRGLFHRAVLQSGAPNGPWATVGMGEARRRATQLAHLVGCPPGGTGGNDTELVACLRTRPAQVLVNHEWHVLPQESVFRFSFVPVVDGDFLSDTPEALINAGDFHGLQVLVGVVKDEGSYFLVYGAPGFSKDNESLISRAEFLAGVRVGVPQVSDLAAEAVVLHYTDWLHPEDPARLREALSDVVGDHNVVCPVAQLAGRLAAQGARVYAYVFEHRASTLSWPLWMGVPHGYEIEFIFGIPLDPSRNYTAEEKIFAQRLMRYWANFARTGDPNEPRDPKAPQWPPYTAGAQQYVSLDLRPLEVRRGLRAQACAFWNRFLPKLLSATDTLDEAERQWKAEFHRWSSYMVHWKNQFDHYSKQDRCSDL

On to `C[C@@]12CC[C@@H]3[C@@](CC[C@H]4[C@@]3(C)CCC[C@@]4(C)C(=O)OCC[N+](C)(C)CCCCCCCCCCCC[N+](C)(C)CCOC(=O)[C@]3(C)CCC[C@@]4(C)[C@@H]5CC[C@@]6(C)C[C@]5(CC[C@@H]43)CC6=O)(CC1=O)C2`, for which the IC50 against Acetylcholinesterase stood at 2.2 µM; against Cholinesterase, 10 µM.
As for `C[C@H]1C[C@@]23CC[C@H]4[C@@](C)(CCC[C@@]4(C)C(=O)OCC[N+](C)(C)Cc4ccccc4)[C@@H]2CC[C@]1(Cl)C3`, the values for the IC50 against Acetylcholinesterase and on Cholinesterase were 9 µM and 1.6 µM, respectively.
For `C[C@@]12CC[C@@H]3[C@@](CC[C@H]4[C@@]3(C)CCC[C@@]4(C)C(=O)OCC[N+](C)(C)CCCCCCCCCC[N+](C)(C)CCOC(=O)[C@]3(C)CCC[C@@]4(C)[C@@H]5CC[C@@]6(C)C[C@]5(CC[C@@H]43)CC6=O)(CC1=O)C2`, in that order: 88 µM and 65 µM.
On to `C[C@@]12CC[C@@H]3[C@]4(CC[C@H]5[C@@]3(C)CCC[C@@]5(C)C(=O)OCC[N+](C)(C)CCCCCCCCC[N+](C)(C)CCOC(=O)[C@]3(C)CCC[C@@]5(C)[C@@H]6CC[C@@]7(C)C[C@]6(CC[C@@H]53)C[C@H]7OC(=O)CCCCCCCCC(=O)O[C@@H]1C4)C2`, for which the half-maximal inhibitory concentration (IC50) worked out at 5 µM at Acetylcholinesterase and 60 µM against Cholinesterase.
For `CC[N+](CC)(CC)CCOCCOCCOC(=O)[C@]1(C)CCC[C@@]2(C)[C@@H]3CC[C@@]4(C)C[C@]3(CC[C@@H]21)CC4=O`, in that order: 80 µM and above 1000 µM.
With `C[C@@]12CC[C@@H]3[C@@](CC[C@H]4[C@@]3(C)CCC[C@@]4(C)C(=O)OCC[N+](C)(C)C)(CC1=O)C2`, the concentration for half-maximal inhibition (IC50) was determined as 150 µM at Acetylcholinesterase and 30 µM against Cholinesterase.
Take `C[C@H]1C[C@@]23CC[C@H]4[C@@](C)(CCC[C@@]4(C)C(=O)OCC[N+](C)(C)C)[C@@H]2CC[C@]1(Cl)C3`: the results for the IC50 on Acetylcholinesterase and against Cholinesterase were 34 µM and 4.2 µM, respectively.
In the case of `C[C@@]12CC[C@@H]3[C@@](CC[C@H]4[C@@]3(C)CCC[C@@]4(C)C(=O)OCC[N+](C)(C)Cc3ccccc3)(CC1=O)C2`, the values for the concentration for half-maximal inhibition (IC50) at Acetylcholinesterase and against Cholinesterase were 30 µM and 6.7 µM, respectively.

One may read the IC50 as the concentration that gives 50% inhibition.
